Measured values reported in patent US20090203780A1, “Use of a Polyunsaturated Fatty Acid Compound” (priority 2006, published 2009).

Test system: enteroendocrine STC1-1 cell line
Experiment: not given
Details: negative control fatty acid; cited from earlier work

For `CCCCCCCCCC(=O)O` [Capric acid], the “Induction of CCK (already known)” value is given as “does not induce CCK”.

Test system: enteroendocrine STC1-1 cell line
Experiment: CCK release from intestinal cells (in-vitro trial, CCK RIA)
Assay type: cell-based
Design: CCK release (Effects of fatty acids on CCK release): unit not given here
Details: 100 μM, 1 hour
Procedure: The relative CCK release by a number of different compounds was determined in an in-vitro trial to measure the effect of various free fatty acids on CCK release from intestinal cells.
The enteroendocrine STC1-1 cell line was cultivated at 37° C. in a 5% CO2, 95% air atmosphere in standard culture medium (DMEM). Cells were routinely passaged upon reaching 70-80% confluency by washing the cell layer with PBS and incubating with a solution of trypsin-EDTA. Plating density of 2×10^6 cells by 75 cm^2 was used for routine subculture.
STC1 cells were seeded into 6-well culture plates and incubated with control culture medium, with or without the tested agents, for 1 hour. All agents were tested at a 100 μM concentration in the free fatty acid form. Since fatty acids were diluted into ethanol the effect of ethanol was tested and indicated the baseline CCK levels. […] Effects of bombesin was used as positive control. At the end of incubation the supernatant was collected, centrifuged and immediately frozen at −20° C. for RIA.
Cell viability was checked by microscopic analysis using an MTT cytotoxicity assay, and in addition LDH release was measured.
CCK release was measured using a standard CCK RIA and effects of fatty acids were measured in 6-fold.

In the case of `CCCCCC=CCC=CCC=CCC=CCCCC(=O)O` [Arachidonic acid (20:4), 5,8,11,14-eicosatetraenoic acid], the “CCK release compared with other fatty acids (in words)” value is reported as “higher level of CCK release than other related fatty acids”.

Same assay, conditions: 100 microM, free fatty acid form, 1 hour incubation, RIA of supernatant, measured in 6-fold, ethanol baseline 53

Compared with conjugated linoleic acid [CLA], `CCCCC/C=C\C/C=C\C/C=C\CCCCC(=O)O` [Gamma-linolenic acid (18:3), Gamma-linolenic acid] is higher in “CCK release (Effects of fatty acids on CCK release)” value: 87 for the first, 140 for the second.

Going from `CCCCCC=CC=CCCCCCCCCC(=O)O` (single isomer, unassigned) [CLA 10, 12 isomer] to `CC/C=C\C/C=C\C/C=C\CCCC/C=C\CCCC(=O)O` [Juniperonic acid (20:4), Juniperonic acid], the “CCK release (Effects of fatty acids on CCK release)” value falls from 133 to 97.

Going from `CCCCCCCCCCCC(=O)O` [Lauric acid] to `CC/C=C\C/C=C\C/C=C\CCCCCCCC(=O)O` [Alpha-linolenic acid (18:3), Alpha-linolenic acid], the “CCK release (Effects of fatty acids on CCK release)” value rises from 118 to 177.

Compared with `CC/C=C\C/C=C\C/C=C\C/C=C\CCCCC(=O)O` [Stearidonic acid (18:4), Stearidonic acid], `CCCC\C=C/C=C/C=C\CCCCCCCC(=O)O` [Punicic acid (18:3), Punicic acid] is higher in “CCK release (Effects of fatty acids on CCK release)” value: 69 for the first, 320 for the second.

First: CCCCC/C=C\C/C=C\CCCCCCCC(=O)O [Linoleic acid (18:2), Linoleic acid]
Second: CCCCCC/C=C/C=C/CCCCCCCC(=O)O (single isomer, unassigned) [CLA 9, 11 isomer]
The “CCK release (Effects of fatty acids on CCK release)” value of the first is lower: 68 for the first, 135 for the second.

First: CC/C=C\C/C=C\C/C=C\C/C=C\C/C=C\CCCC(=O)O [Eicosapentanoic acid (20:5), Eicosapentanoic acid]
Second: CCCCCCCCCC(=O)O [Capric acid]
The “CCK release (Effects of fatty acids on CCK release)” value of the first is higher: 164 for the first, 43 for the second.

Going from `CCCC/C=C/C=C/C=C\CCCCCCCC(=O)O` [Alpha-eleostearic acid (18:3), Alpha-eleostearic acid] to `CCCCCCCC/C=C\CC/C=C\CCCC(=O)O` [Taxoleic acid (18:2)], the “CCK release (Effects of fatty acids on CCK release)” value falls from 212 to 82.

Going from `CCCCC=CC=CC=CCCCCCCCC(=O)O` [Gamma-eleostearic acid (18:3), Gamma-eleostearic acid] to `CCCCCCCC/C=C\CCCCCCCC(=O)O` [Oleic acid (18:1), Oleic acid], the “CCK release (Effects of fatty acids on CCK release)” value falls from 126 to 90.

Compared with `CCCCC/C=C\C/C=C\CCCC/C=C\CCCC(=O)O` [Sciadonic acid (20:3), Sciadonic acid], `CCCCCC=CCC=CCC=CCC=CCCCC(=O)O` [Arachidonic acid (20:4), 5,8,11,14-eicosatetraenoic acid] is higher in “CCK release (Effects of fatty acids on CCK release)” value: 79 for the first, 392 for the second.
